Results taken from paper PMC4868691, “β-catenin nuclear translocation in colorectal cancer cells is suppressed by PDE10A inhibition, cGMP elevation, and activation of PKG” (Oncotarget, 2015).
Where two headings read alike, the source gives them in different places.

What was measured:
HT-29 cells [1] = experiment: Growth inhibition with or without H89 pretreatment (CellTiter-Glo); assay type: cell-based, human; settings: for IC50: Homo sapiens
Experimental: (§1) C. […] They are assigned to Pf-2545920 because the x-axis label names it as the compound given in dose-response.
(§2) Growth Assays were performed by seeding 5,000 cells per well in a 96-well microtiter plate, or 2,500 cells per well in half-area 96-well microtiter plates. Cells were allowed to settle onto the bottom of the plate before being dosed with compounds in dose-response for 72 hours at 37°C in a humidified incubator containing 5% CO2. After incubation, growth inhibitory activity was assayed using the Cell Titer Glo Assay (Promega) according to manufacturer's recommendations.

HT-29 cells [2] = experiment: Kinase inhibitor pretreatment, VASP phosphorylation after Pf-2545920 stimulation; assay type: cell-based, human
Experimental: as §1
(§3) Cell lysates were separated by SDS-PAGE using 12% polyacrylamide gel, 7.5% for PDE10 protein analysis, followed by electrophoretic transfer to nitrocellulose membranes. The membranes were then blocked at room temperature on an orbital shaker for 1 hour in a solution of 5% non-fat dry milk in TBS with 0.1% Tween 20 (TBS-T). Membranes were then incubated overnight at 4 degrees on an orbital shaker with appropriate primary antibodies. Membranes were then washed three times with TBS-T before addition of appropriate secondary antibodies, and incubated at room temperature for 1 hour on an orbital shaker. Membranes were washed and developed using SuperSignal West Enhanced Chemiluminescence Reagent (Pierce).

HT-29 cells [3] = experiment: PARP cleavage by Western blot; assay type: cell-based, human; settings: HT-29, 0.1 μM KT 5823 for 30 minutes before Pf-2545920 at 5 μM and 10 μM for 6 hours
Experimental: as §3

PDE1A = PDE1A (Homo sapiens, UniProt P54750); experiment: Phosphodiesterase isozyme specificity, PDE1A; assay type: biochemical; settings: @ 10 μM
PDE1A, sequence (P54750 whole entry, species assumed): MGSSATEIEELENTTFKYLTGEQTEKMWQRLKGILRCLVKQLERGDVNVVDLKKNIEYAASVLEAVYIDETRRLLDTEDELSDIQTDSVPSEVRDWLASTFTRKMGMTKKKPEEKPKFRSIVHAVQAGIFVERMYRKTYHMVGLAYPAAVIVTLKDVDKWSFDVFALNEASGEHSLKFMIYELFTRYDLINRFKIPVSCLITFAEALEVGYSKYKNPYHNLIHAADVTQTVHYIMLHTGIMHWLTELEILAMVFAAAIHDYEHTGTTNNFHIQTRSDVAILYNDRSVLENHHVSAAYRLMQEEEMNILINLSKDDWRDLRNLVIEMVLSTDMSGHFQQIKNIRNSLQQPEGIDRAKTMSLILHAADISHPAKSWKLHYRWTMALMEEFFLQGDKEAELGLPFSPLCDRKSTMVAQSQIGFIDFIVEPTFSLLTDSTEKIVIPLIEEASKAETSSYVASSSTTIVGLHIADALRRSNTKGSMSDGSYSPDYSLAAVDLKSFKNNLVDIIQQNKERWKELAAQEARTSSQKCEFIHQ

PDE2A = PDE2A (Homo sapiens, UniProt O00408); experiment: Phosphodiesterase isozyme specificity, PDE2A; assay type: biochemical
PDE2A, sequence (O00408 whole entry, species assumed): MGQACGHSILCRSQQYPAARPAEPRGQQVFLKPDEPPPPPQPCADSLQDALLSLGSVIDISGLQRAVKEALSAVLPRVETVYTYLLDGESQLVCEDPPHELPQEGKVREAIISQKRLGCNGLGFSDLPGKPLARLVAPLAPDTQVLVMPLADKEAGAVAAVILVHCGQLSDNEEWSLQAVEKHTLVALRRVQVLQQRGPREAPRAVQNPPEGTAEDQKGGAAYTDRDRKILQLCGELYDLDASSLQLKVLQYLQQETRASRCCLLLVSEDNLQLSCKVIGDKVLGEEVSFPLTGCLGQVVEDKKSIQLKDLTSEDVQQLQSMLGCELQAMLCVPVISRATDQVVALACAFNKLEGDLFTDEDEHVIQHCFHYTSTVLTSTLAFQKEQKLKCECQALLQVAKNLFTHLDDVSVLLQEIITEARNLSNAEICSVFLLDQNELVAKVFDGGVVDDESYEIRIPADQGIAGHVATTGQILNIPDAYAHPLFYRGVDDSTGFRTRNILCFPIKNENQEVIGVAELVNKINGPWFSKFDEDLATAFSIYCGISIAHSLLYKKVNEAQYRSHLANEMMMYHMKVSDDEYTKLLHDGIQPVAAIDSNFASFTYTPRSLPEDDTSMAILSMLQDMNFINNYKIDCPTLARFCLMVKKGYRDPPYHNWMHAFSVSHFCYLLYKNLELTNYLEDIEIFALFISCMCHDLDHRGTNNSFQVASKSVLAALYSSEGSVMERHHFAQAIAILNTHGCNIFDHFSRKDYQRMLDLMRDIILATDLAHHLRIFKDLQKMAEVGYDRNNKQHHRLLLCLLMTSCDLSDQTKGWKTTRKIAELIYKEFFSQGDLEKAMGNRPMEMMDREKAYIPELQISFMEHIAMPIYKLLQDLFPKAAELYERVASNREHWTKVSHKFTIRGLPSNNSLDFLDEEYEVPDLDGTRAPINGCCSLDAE

PDE3A = PDE3A (Homo sapiens, UniProt Q14432); experiment: Phosphodiesterase isozyme specificity, PDE3A; assay type: biochemical
PDE3A, sequence (Q14432 whole entry, species assumed): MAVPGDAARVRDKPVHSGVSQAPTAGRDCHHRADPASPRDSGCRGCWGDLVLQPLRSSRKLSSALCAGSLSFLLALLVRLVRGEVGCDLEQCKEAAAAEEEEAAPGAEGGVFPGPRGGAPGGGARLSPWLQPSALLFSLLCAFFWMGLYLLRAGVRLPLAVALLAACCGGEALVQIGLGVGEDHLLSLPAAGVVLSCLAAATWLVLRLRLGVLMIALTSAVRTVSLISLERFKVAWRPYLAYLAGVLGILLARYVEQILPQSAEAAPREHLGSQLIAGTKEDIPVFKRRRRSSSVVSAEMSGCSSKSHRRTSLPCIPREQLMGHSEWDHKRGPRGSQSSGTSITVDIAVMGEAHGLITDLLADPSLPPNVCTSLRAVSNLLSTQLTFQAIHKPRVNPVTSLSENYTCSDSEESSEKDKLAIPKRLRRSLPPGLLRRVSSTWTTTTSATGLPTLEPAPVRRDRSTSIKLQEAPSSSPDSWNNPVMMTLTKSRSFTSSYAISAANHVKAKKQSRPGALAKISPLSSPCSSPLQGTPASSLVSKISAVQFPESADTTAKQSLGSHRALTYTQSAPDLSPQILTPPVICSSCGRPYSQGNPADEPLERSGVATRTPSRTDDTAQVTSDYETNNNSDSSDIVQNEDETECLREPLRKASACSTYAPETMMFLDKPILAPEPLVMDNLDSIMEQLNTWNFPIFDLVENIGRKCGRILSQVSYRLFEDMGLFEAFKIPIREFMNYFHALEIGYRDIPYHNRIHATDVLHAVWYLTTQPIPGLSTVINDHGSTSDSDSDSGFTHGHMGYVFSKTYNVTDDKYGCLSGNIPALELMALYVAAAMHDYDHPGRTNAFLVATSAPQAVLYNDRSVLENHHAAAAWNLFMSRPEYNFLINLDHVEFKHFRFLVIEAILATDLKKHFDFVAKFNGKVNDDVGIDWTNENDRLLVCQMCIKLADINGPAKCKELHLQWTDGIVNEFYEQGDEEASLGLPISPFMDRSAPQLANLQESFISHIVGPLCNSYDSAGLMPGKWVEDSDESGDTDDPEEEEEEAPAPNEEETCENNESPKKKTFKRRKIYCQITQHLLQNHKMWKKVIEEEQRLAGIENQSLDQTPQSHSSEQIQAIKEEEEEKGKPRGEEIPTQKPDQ

PDE3B = PDE3B (Homo sapiens, UniProt Q13370); experiment: Phosphodiesterase isozyme specificity, PDE3B; assay type: biochemical; settings: @ 10 μM
PDE3B, sequence (Q13370 whole entry, species assumed): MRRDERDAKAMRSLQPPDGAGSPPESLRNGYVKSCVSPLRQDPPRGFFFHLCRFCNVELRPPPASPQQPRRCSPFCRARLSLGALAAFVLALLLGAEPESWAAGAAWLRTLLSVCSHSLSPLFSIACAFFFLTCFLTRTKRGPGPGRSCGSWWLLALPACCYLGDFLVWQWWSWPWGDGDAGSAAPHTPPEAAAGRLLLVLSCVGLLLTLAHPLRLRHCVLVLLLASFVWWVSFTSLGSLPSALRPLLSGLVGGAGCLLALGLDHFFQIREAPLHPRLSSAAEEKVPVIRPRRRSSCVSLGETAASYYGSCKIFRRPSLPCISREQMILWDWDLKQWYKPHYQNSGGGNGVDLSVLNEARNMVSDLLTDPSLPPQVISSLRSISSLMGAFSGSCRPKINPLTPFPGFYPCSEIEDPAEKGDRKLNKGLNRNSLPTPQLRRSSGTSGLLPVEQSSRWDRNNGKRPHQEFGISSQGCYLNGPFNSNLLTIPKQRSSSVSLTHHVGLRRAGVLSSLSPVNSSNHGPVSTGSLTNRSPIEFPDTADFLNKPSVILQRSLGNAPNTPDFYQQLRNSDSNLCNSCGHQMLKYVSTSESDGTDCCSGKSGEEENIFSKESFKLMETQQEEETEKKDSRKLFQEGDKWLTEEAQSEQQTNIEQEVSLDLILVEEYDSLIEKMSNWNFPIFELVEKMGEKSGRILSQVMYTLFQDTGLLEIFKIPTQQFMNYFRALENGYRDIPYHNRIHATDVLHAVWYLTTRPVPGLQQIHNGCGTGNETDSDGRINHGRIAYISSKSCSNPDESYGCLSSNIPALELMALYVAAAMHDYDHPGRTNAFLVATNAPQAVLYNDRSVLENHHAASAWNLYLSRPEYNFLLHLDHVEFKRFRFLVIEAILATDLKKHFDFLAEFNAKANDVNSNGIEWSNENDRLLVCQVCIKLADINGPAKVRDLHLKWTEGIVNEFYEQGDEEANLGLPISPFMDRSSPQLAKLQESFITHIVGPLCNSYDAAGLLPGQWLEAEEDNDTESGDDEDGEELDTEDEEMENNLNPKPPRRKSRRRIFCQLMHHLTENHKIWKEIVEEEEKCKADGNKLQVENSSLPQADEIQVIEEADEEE

PDE4B2 = PDE4B2 (Homo sapiens, UniProt Q07343); experiment: Phosphodiesterase isozyme specificity, PDE4B2; assay type: biochemical; settings: PDE4B2, cAMP substrate
PDE5 = PDE5 (Homo sapiens, UniProt O76074); experiment: Phosphodiesterase isozyme specificity, PDE5; assay type: biochemical; settings: PDE5, cGMP substrate
PDE9A = PDE9A (Homo sapiens, UniProt O76083); experiment: Phosphodiesterase isozyme specificity, PDE9A; assay type: biochemical; settings: cGMP substrate, @ 10 μM
PDE11A = PDE11A (Homo sapiens, UniProt Q9HCR9); experiment: Phosphodiesterase isozyme specificity, PDE11A; assay type: biochemical; settings: @ 10 μM
PDE11A, sequence (Q9HCR9 whole entry, species assumed): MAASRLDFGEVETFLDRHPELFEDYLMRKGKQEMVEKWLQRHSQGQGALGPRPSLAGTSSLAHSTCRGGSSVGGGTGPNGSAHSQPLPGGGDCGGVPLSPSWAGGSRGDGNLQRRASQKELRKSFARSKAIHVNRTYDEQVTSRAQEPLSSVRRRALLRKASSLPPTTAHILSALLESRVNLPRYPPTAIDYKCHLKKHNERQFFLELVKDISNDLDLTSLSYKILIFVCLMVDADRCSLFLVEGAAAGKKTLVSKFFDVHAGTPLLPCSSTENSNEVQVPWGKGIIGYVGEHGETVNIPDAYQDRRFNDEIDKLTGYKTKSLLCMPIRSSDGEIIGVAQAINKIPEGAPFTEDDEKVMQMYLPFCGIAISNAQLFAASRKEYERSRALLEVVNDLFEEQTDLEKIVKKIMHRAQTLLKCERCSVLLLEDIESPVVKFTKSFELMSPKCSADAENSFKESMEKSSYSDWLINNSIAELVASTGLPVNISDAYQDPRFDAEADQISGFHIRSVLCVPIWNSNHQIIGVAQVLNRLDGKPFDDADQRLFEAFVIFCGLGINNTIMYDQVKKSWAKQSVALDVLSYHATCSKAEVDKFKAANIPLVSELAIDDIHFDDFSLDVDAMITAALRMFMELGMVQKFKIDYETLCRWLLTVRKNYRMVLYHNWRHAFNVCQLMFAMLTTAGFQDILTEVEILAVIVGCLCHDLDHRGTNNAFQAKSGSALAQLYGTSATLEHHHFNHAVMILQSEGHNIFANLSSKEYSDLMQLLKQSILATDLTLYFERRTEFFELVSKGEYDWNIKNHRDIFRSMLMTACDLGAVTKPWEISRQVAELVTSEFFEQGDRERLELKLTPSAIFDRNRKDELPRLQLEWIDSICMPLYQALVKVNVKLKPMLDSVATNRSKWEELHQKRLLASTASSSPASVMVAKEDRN

HCT116 = experiment: Growth inhibition assay (Cell Titer Glo), HCT116; assay type: cell-based; settings: Homo sapiens, HCT-116; HCT116, 72 hours
Experimental: as §2

COLO-205 = experiment: Growth inhibition assay (Cell Titer Glo), COLO-205; assay type: cell-based; settings: Homo sapiens; COLO-205, 72 hours
Experimental: as §2

HCC-2998 = experiment: Growth inhibition assay (Cell Titer Glo), HCC-2998; assay type: cell-based; settings: Homo sapiens; HCC-2998, 72 hours
Experimental: as §2

HCT-15 = experiment: Growth inhibition assay (Cell Titer Glo), HCT-15; assay type: cell-based; settings: Homo sapiens; HCT-15, 72 hours
Experimental: as §2

KM12 = experiment: Growth inhibition assay (Cell Titer Glo), KM12; assay type: cell-based; settings: Homo sapiens; KM12, 72 hours
Experimental: as §2

SW620 = experiment: Growth inhibition assay (Cell Titer Glo), SW620; assay type: cell-based; settings: Homo sapiens, SW-620; SW620, 72 hours
Experimental: as §2

[4] = test system: panel of nine human colon tumor cell lines; experiment: Growth inhibition, panel of nine human colon tumor cell lines; assay type: cell-based; settings: 72 hours, read-out: growth inhibition IC50 values, range over all lines
Experimental: as §2

[5] = test system: HT-29 vector control cells; experiment: Growth inhibition, HT-29 vector control cells; assay type: cell-based; settings: Homo sapiens
Experimental: as §2
(§4) HT-29 PDE10 knockdown cells were generated and described previously. Briefly, lentiviral particles targeting PDE10 were produced in HEK293T cells according to the manufacturer's instruction. HT-29 cells were transduced by the lentivirus particles followed by puromycin selection (5μg/ml) for 2 weeks. Individual cell colonies stably expressing shRNA were selected and isolated in the presence of puromycin, and evaluated by western blotting previously.

[6] = test system: HT-29 PDE10 knockdown cells; experiment: Growth inhibition, HT-29 PDE10 knockdown cells; assay type: cell-based; settings: Homo sapiens; HT-29 PDE10 knockdown (shRNA) cells
Experimental: as §2, §4

HT-29 colon tumor cells = experiment: Fluorescent cytotoxicity assay (CellTox Green); assay type: cell-based, human; settings: dose response over time
Experimental: Cells were plated in 96-well microtiter plates at a […] of 5,000 cells per well and treated with compound or vehicle control at the doses and times indicated. Cytotoxicity was measured using CellTox Green Cytotoxicity Assay (Promega) according to the manufacturer's recommendations.

HT-29 cells [7] = experiment: Apoptosis, Annexin V-FITC + PI staining by FACS; assay type: cell-based, human; settings: 72 hours; for cells staining positive for Annexin V: lower right quadrant; for cells staining positive for both Annexin V and PI: upper right quadrant
Experimental: Apoptosis was assayed using the Annexin V-FITC + PI apoptosis detection kit from Leinco Technologies according to the manufacturer's recommendations. HT-29 cells were incubated with compounds for 72 hrs at 37°C before being analyzed for apoptosis by FACS.

[8] = test system: HCT-116 colon tumor cells; experiment: VASP/CREB phosphorylation by Western blot (PKG and PKA activation); assay type: cell-based, human
Experimental: as §3

HCT-116 [9] = experiment: cGMP EIA assay, intracellular cGMP; assay type: cell-based, human; settings: HCT-116, concentration-dependent
Experimental: Total levels of cGMP were measured using a competitive ELISA assay (Cayman Chemical) according to the manufacturer's recommendations. A standard curve is generated using samples of known cGMP concentrations provided with the assay and plotted using linear regression to extrapolate samples.

HCT-116 [10] = experiment: Intracellular cAMP levels; assay type: cell-based, human; settings: HCT-116, concentration-dependent
SW-480 colon tumor cells = experiment: β-catenin nuclear translocation under Wnt3a stimulation (confocal immunofluorescence); assay type: cell-based, human; settings: pre-incubation 30 minutes, Wnt3a conditioned media 5 hours
Experimental: Cover glass bottom 35mm tissue culture dishes were precoated with EmbryoMax 0.1% gelatin from Millipore according to manufacturer's recommendations. Cells were then plated and allowed to grow to 70-90% confluency before treatments. SW-480 cells were serum starved overnight prior to the addition of PDE10 inhibitors at the concentrations indicated. […] Briefly, Wnt3a or parental L-cells lacking Wnt3a were purchased from the ATCC and grown according to the manufacurer's recommendations. Once cells reached confluency, the media was collected and filtered before use. Conditioned media was added to SW-480 cells in order to stimulate nuclear translocation of β-catenin for 5 hours before fixation and staining. Cover glass bottom 35mm tissue culture dishes were precoated with EmbryoMax 0.1% gelatin from Millipore according to manufacturer's recommendations. Cells were then plated and allowed to grow to 70-90% confluency before treatments. Cells were fixed with 10% buffered formalin, before permeabilization with PBS containing 0.1% Trition X-100. Cells were incubated with the appropriate primary antibodies before incubation with secondary antibodies conjugated with Alexa-fluor 488 and mounted using ProLong Gold antifade reagent with DAPI (Molecular Probes-ThermoFisher Scientific). Images were acquired using a Nikon A1 Laser Scanning Confocal microscope. […]

colon tumor cell = experiment: Colon tumor cell growth, rolipram; assay type: cell-based; settings: concentrations up to 100 μM, data not shown
[11] = HT-29, 10 minutes pretreatment in ascending concentrations, then 5μM Pf-2545920 for 1 hour
[12] = HT-29, 30 minutes pretreatment in ascending concentrations, then 5 μM Pf-2545920 for 1 hour
[13] = cAMP substrate, read-out: cAMP IC50
[14] = cGMP substrate, read-out: cGMP IC50

O=S(=O)(NCCNC/C=C/c1ccc(Br)cc1)c1cccc2cnccc12 [H89]
effect on sensitivity of cells to growth inhibitory activity of Pf-2545920 (HT-29 cells [1]; HT-29, 0.1μM H89 for 10 minutes before Pf-2545920 for 72 hours): had no effect on the sensitivity | PKA activation (VASP phosphorylation at serine 157) (HT-29 cells [2]; [11]): blocks the activation of PKA in a concentration-dependent manner | PKG activation (VASP phosphorylation at serine 239) (HT-29 cells [2]; [11]): blocking the activation of PKG, albeit at higher concentrations

COC(=O)[C@@]1(OC)C[C@H]2O[C@]1(C)n1c3ccccc3c3c4c(c5c6ccccc6n2c5c31)C(=O)N(C)C4 [KT 5823]
PKA activity (VASP phosphorylation at serine 157) (HT-29 cells [2]; [12]): minimally affecting the activity of PKA | PKG activation (VASP phosphorylation at serine 239) (HT-29 cells [2]; [12]): caused a decrease in PKG activation | apoptosis by Western blot for cleaved-PARP (HT-29 cells [3]): reduced apoptosis

Cn1cc(-c2ccncc2)c(-c2ccc(OCc3ccc4ccccc4n3)cc2)n1 [Pf-2545920, 2-[4-(1-Methyl-4-pyridin-4-yl-1H-pyrazol-3-yl)-phenoxymethyl]-quinoline]
cAMP IC50 (PDE1A; cAMP substrate): Inactive @ 10 μM | cGMP IC50 (PDE1A; cGMP substrate): Inactive @ 10 μM | IC50 (PDE2A; [13]): 36.6 µM | IC50 (PDE2A; [14]): > 50 µM | IC50 (PDE3A; [13]): > 50 µM | IC50 (PDE3A; [14]): > 50 µM | cAMP IC50 (PDE3B; cAMP substrate): Inactive @ 10 μM | cGMP IC50 (PDE3B; cGMP substrate): Inactive @ 10 μM | IC50 (PDE4B2): 2.36 µM | IC50 (PDE5): 8.6 µM | cGMP IC50 (PDE9A): Inactive @ 10 μM | cAMP IC50 (PDE11A; cAMP substrate): Inactive @ 10 μM | cGMP IC50 (PDE11A; cGMP substrate): Inactive @ 10 μM | IC50 (HCT116): 19.3 µM | IC50 (COLO-205): 18.5 µM | IC50 (HCC-2998): 18.9 µM | IC50 (HCT-15): 14.4 µM | IC50 (KM12): 6.9 µM | IC50 (SW620): 19.6 µM | IC50 [4]: 6.9 to 19.6 µM | IC50 [5]: 1.2 µM | IC50 [6]: 13.4 µM | IC50 (HT-29 cells [1]; HT-29, pretreated with 0.1μM H89 for 10 minutes, 72 hours): 4.8 µM | IC50 (HT-29 cells [1]; HT-29, without H89, 72 hours): 4.6 µM | cell death (fluorescence intensity) (HT-29 colon tumor cells): induces cell death in a concentration-dependent manner | cells staining positive for Annexin V (HT-29 cells [7]; HT-29, 10 μM): 25.9% | cells staining positive for both Annexin V and PI (HT-29 cells [7]; HT-29, 10 μM): 31.9% | cells staining positive for Annexin V (HT-29 cells [7]; HT-29, 25 μM): 38.2% | cells staining positive for both Annexin V and PI (HT-29 cells [7]; HT-29, 25 μM): 31.4% | phosphorylated VASP (serine 239 and serine 157) ([8]; HCT-116, 5 μM, time course up to 8 hours, time-dependent): increased the level of phosphorylated VASP | PKG and PKA activation (phosphorylation of VASP and CREB) ([8]; HCT-116, dose response, 1 hour): activated both PKG and PKA | intracellular cGMP levels (HCT-116 [9]): increased | intracellular cAMP levels (HCT-116 [10]): increased | β-catenin in the nucleus (SW-480 colon tumor cells; SW-480, 10 μM): reduced the amount of β-catenin in the nucleus | total protein levels of β-catenin (SW-480 colon tumor cells; SW-480, 25 μM): total protein levels of β-catenin are decreased

COc1ccc(C2CNC(=O)C2)cc1OC1CCCC1 (stereo not drawn) [rolipram]
colon tumor cell growth (colon tumor cell): did not affect colon tumor cell growth
